The conditions of the data set: Crystal; Adiabatic calorimetry.

Each structure is given as a SMILES string. Numbers after ± are expanded uncertainties.

With `CCCCn1cc[n+](C)c1.F[P-](F)(F)(F)(F)F` [1-butyl-3-methylimidazolium hexafluorophosphate], the Triple point temperature is listed as 283.55 ± 0.05 K.
